Measurements reported in patent publication US6630326B2, “Cancer diagnosis and therapy based on mutations in TGF-β receptors” (Case Western Reserve University, priority 1995, dated 2003).
“Also recorded” adds a separate entry of the source.

What was measured:
[1] = test system: RII protein expression in MCF-7, ZR-75, and T-47D; experiment: 125I-TGFβ cross-link assay for cell surface RII protein after 5-Azacytidine treatment; assay type: cell-based, human; conditions: MCF-7, ZR-75, T-47D; 2.5-5.0 μM 5-Azacytidine; after 8 days
Excerpt: A preferred method of detecting the presence of functional RII is by TGFβ binding assay in which labelled TGFβ binds to RII followed by cross-linking and measurement of the amount of label linked to RII protein. Details of this assay have been published in Sun, et al., incorporated herein by reference. Briefly, cell surface receptors may be detected by cross-linking in situ to ^125I labelled TGFβ followed by separation on SDS-PAGE and visualization by autoradiography as described in Example 3 below.
To assay for expression of cell surface TGFβ receptors, we performed cross-linking experiments with ^125I-labeled TGFβ. Cell surface TGFβ receptors were labeled by cross-linking to ^125I-labeled human TGFβ1 as described in Sun, L., et al., 1994 (J. Biol. Chem., 269:26449). Labeled receptors were resolved by SDS-polyacrylamide gel electrophoresis and visualized by autoradiography. There was no detectable ^125I-TGFβ binding to any of eight tested RER^+ cell lines with reduced amounts of RII transcript (FIG. 3). The absence of RI surface receptors in these lines (FIG. 3) is consistent with previous reports that RII receptor is required for TGFβ binding to RI (Wrana, J., et al., 1992, Cell, 71:1003; Sun, L., et al., 1994, J. Biol. Chem., 269:26449). […]

[2] = test system: RII expression in MCF-7, ZR-75, and T-47D; experiment: RNase protection assay for RII transcript after 5-Azacytidine treatment; assay type: cell-based, human; conditions: ER+ breast cancer cell lines MCF-7, ZR-75, T-47D; 2.5-5.0 μM 5-Azacytidine; after 8 days
Excerpt: A preferred method for detecting loss of mRNA is based on RNase protection. Details of this assay have been published in Sun, et al. Briefly the RNase protection assay measures the amount of RII mRNA in a sample by measuring the amount of RNA which binds to a radioactive antisense RII RNA probe. The radioactive antisense RII RNA probe is produced in a test tube, for example from a plasmid which carries 264 bp for RII cDNA (NarI-PstI) cloned downstream of a T3 RNA polymerase site from which the RNA can be transcribed. Usually, a control human probe such as γ-actin RNA is also prepared from a similar plasmid. The probes are hybridized overnight at room temperature in a guanidine buffer with RNA extracted from tumor cells. The next morning probe RNA which is not protected by binding to authentic RII transcript is destroyed by digestion with RNase A+T1. Protected probe RNA is separated from the reaction by electrophoresis on a urea-acrylamide gel and visualized by autoradiography.
Expression of RI and RII transcripts was examined in 38 human colon tumor cell lines using a ribonuclease (RNase) protection assay as described above (see also Sun, et al., 1994). Total RNA (40 μg) from each sample was hybridized overnight in a single reaction to probes for RI, RII and human γ-actin. […]

[3] = test system: colon cells with intact TGFβ receptors; experiment: TGFβ-induced cell death in colon cells; assay type: cell-based; conditions: colon cells with intact TGFβ receptors exposed to TGFβ
Excerpt: Thus, therapeutic effects of restoring an active RII in colon cancer cells will include restoring normal cell death pathways. RII gene therapy is thus useful in combination with and to sensitize cells to conventional cytotoxic radiation or chemotherapy.

Compound | RII protein expression (125I-TGFβ cross-link) [1] | RII expression (RNase protection assay) [2] | induction of cell death (apoptosis) [3]
Nc1ncn([C@@H]2O[C@H](CO)[C@@H](O)[C@H]2O)c(=O)n1 [5-Azacytidine] | RII protein expression was confirmed | restored RII expression; also recorded: RII expression by the treated cells was demonstrated | –
TGFβ: transforming growth factor beta, natural inhibitor of growth of human epithelial cells | – | – | induce cell death
